Assay results taken from patent US20250136581A1, “SUBSTITUTED TRIAZOLE DERIVATIVE, PREPARATION METHOD THEREFOR, PHARMACEUTICAL COMPOSITION THEREOF, AND USE THEREOF” (SHANGHAI SIMR BIOTECHNOLOGY CO., LTD., priority 2021, published 2025).

Molecular target: human α5β3γ2 receptors (α5-GABAA receptor) (Homo sapiens (Human), UniProt P18507+P31644)
Assay: 3H-flunitrazepam competition binding, human α5β3γ2 GABAA receptor
Conditions: HEK293 cell membranes, 1 nM 3H-flunitrazepam; read-out: α5-GABAAR Ki
Method in brief: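 Radioligand displacement of 1 nM 3H-flunitrazepam from membranes of HEK293 lines stably expressing the human subtypes, 1 h at room temperature, compound in 8-point 4-fold series. Bound label on GF/C filters counted by scintillation; Ki derived from fitted IC50, with flumazenil as low control.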

Cc1nnn(-c2ccc(C(F)F)cc2)c1COc1ccc(N2CC(=O)NC(C)C2)nn1 (stereo not shown) [Example 6, 4-(6-((1-(4-(Difluoromethyl)phenyl)-4-methyl-1H-1,2,3-triazol-5-yl)methoxy)pyridazin-3-yl)-6-methylpiperazin-2-one]
Ki: 0.91 nM
